These results are taken from patent US7582786B2, “Synthetic catalytic free radical scavengers useful as antioxidants for prevention and therapy of disease” (Eukarion Inc., priority 1996, dated 2009).

A short description of data set [1]: SOD activity, xanthine/xanthine oxidase with cytochrome C as acceptor (Example 2). Format: biochemical. The following applies: relative to C7 (C7 = 100). As to the method: Superoxide dismutase (SOD) activity was assayed by following the inhibition of the reduction of an electron acceptor molecule in the presence of the free-radical generating system xanthine/xanthine oxidase (McCord et al. (1973) Superoxide and Superoxide Dismutase in “Oxidases and Related Redox Systems, vol. I, King et al. eds., University Park press, Baltimore, pp. 51-76). The assay mixture consisted of 50 mM sodium phosphate, pH 7.8, 120 μM xanthine, 0.2 units/ml xanthine oxidase, with acceptor molecule and salen manganese compound, as indicated. Assays were conducted at 27±0.2° C. using a water-jacketed cell holder in a Beckman DU7400 spectrophotometer. In most cases, oxidized cytochrome c, at 0.13 mg/ml, was employed as acceptor and its reduction was monitored spectrophotometrically at 550 nm. In some experiments, nitroblue tetrazolium (NBT), at 80 μM, was substituted for cytochrome c as the acceptor. NBT reduction was also monitored at 550 nm. An estimated extinction coefficient for NBT reduction, 20,800 M^−1cm^−1, determined empirically by exhaustive reduction of NBT in the reaction mixture described above, was employed where indicated. […] Conversion of xanthine to urate was calculated using ε290's of […] for urate and 4050 M^−1cm^−1 for xanthine. […] For each compound, at least four different concentrations were tested in duplicate.

For data set [2], the system named is Human dermal fibroblasts (HF cells). Description: Cell protection assay, tert-butylhydroperoxide (t-BHP) toxicity, XTT. Format: cell-based. The following applies: for Cell viability, absorbance at 490 nm uncorrected for blank: t-BHP 0.5 mM. The protocol: (§1) Human dermal fibroblasts (HF cells) were obtained from the American type tissue Culture Collection at passage 1 and cultured and propagated in a medium (HF medium) consisting of Dulbecco's Modified Eagle's Medium with 4.5 g/l D-glucose, 10% calf serum 4 mM glutamine, 50 units/ml penicillin, and 50 μg/ml streptomycin in a 37° C. humidified incubator equilibrated with 5% CO2. Cells were used at passages 5 or 6 for experiments. For cell protection assays, HF cells were seeded at a density of about 15,000 cells per cm2 onto 96-well culture plates and allowed to grow to confluence. To assess protection tert-butylhydroperoxide (t-BHP) toxicity, confluent cell layers were first treated with the indicated concentrations of test compounds dissolved in HF medium for 18 hr. The medium was then replaced with fresh medium containing test compounds and 0.5 mM tert-butylhydroperoxide (t-BHP) and cells were incubated for another 18 hr. The medium was then removed and replaced with fresh HF medium (100 μl per well) without test compounds or t-BHP. Fifty μl of XTT reagent (Boeringer Mannheim, Inc.), prepared as described by the manufacturer, was then added to each well and the plates returned to the incubator. After 2 hr., the absorbance at 490 nm was measured in a BioRad (Richmond, Calif.) Model 3550 plate-reader, using a reference wavelength of 655 nm. Control cells that had not been exposed to test compounds or toxic agents were included among the samples treated with XTT reagent. Absorbance measurements for blank wells, containing HF medium and XTT reagent but no cells, were also determined. To analyze protection from glucose/glucose oxidase toxicity, confluent cell layers were incubated with HF medium containing glucose oxidase (0.019 units/ml) along with test compounds, as indicated, for 18 hr in the tissue culture incubator. Fresh HF medium was then added and cell viability assessed using the XTT reagent as described above. For both these models, concentrations of toxic agents were selected that were reproducibly completely lethal. Cytotoxicity assessments were routinely confirmed by visual inspection of the cell layers prior to addition of the XTT reagent.

A further data set has as its system brain homogenates. Description: Iron-induced lipid peroxidation in brain homogenates (MDA). Format: biochemical, rat. The protocol:
Lipid peroxidation was induced by incubating a mixture consisting of 0.25 ml homogenate, 0.25 ml ASCF with test compounds, and 10 μM FeCl2 for 1 hr at 35° C. under an atmosphere equilibrated with O2:CO2(95:5). Following the incubation, 0.1 ml of the sample was extracted with trichloroacetic acid and analyzed for thiobarbituric acid reactive material as described previously, using authentic malonyldialdehyde (MDA) as a standard.

The test system of data set [3] is Human dermal fibroblasts (HF cells). Description: Cell protection assay, glucose/glucose oxidase toxicity, XTT. Type of data set: cell-based. As to the method: as §1
Catalase and peroxidase activities were assayed as described in Example 2. Catalase assays contained 10 μM salen-manganese complex and 10 mM hydrogen peroxide. Peroxidase assays contained 10 μM salen-manganese complex and 0.2 mM hydrogen peroxide. Glucose-glucose oxidase toxicity assays were performed using human dermal fibroblasts as described in Example 2.
A general note: Tetrazolium dyes change colour on reduction, which living cells bring about.

Data set [4] is described as follows: Peroxidase activity, H2O2-dependent oxidation of ABTS (Example 2). The following applies: for Peroxidase rate: 10 μM salen manganese complex, 0.2 mM H2O2; for Peroxidase: relative to C7 (C7 = 100). Type of data set: biochemical. The essentials: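 ABTS oxidation by salen manganese complex (10 μM) with 0.2 mM H2O2 in 50 mM sodium phosphate pH 8.1 (or pH 6.0/7.1 where indicated), 0.9% NaCl, 0.5 mM ABTS, 27±0.2 °C. Oxidized ABTS read spectrophotometrically at 740 or 500 nm and quantified from Δε740 20,300 or Δε500 3400 M^−1cm^−1.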

Data set [5] is described as follows: Catalase activity, conversion of H2O2 to oxygen, polarographic oxygen electrode (Example 2). Format: biochemical. The essentials: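 Clark-type oxygen electrode at 25 °C in 50 mM sodium phosphate pH 8.1, 0.9% NaCl, with 10 μM salen-manganese complex and 10 mM H2O2. Initial rates from slope of first ~5 s, corrected for H2O2-alone rate; endpoint O2 as maximal minus pre-substrate baseline.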

Data set [6] in a line: Peroxidase activity with t-BHP as substrate, ABTS oxidation. Type of data set: biochemical. As to the method: Peroxidase activity was assayed by monitoring the hydrogen peroxide-dependent oxidation of 2,2′-azino-bis(3-ethylbenzthiazoline-6) sulfonic acid (ABTS) spectrophotometrically. Standard assay mixtures consisted of 50 mM sodium phosphate, pH 8.1, 0.9% sodium chloride, 0.5 mM ABTS, and H2O2 and salen manganese complex as indicated. Where indicated, 50 mM sodium phosphate buffers of pH 6.0 or pH 7.1 were substituted. Assays were conducted at 27±0.2° C. ABTS oxidation was monitored at 740 or 500 nm to eliminate interference by the salen manganese complexes, many of which absorb in the vicinity of the λmax of oxidized ABTS, and to avoid absorbance values that exceeded the linear range of the spectrophotometer. The amount of oxidized ABTS was estimated using an Δε740 of 20,300 M^−1cm^−1 or an Δε500 of 3400 M^−1cm^−1 calculated based upon the published molar extinction coefficient oat 405 nm (36,800).
(In comparison, horseradish peroxidase utilized t-BHP with an ABTS oxidation rate that was about 5.4% of the rate with H2O2).

The mark [7] stands for this setting: 10 μM salen manganese complex, 10 mM H2O2.

In data set [1], `COc1ccc2c(c1)[O][Mn]([O]C(C)=O)[O]c1cc(OC)ccc1C=NCCN=C2` [Compound C33] gave an SOD of 68. The “Cell viability, absorbance at 490 nm uncorrected for blank” value (“Cell viability, absorbance” below) is reported as 0.27 ± 0.01 in data set [2] (2.5 μM); 0.27 ± 0.01 in data set [2] (5 μM); 1.35 ± 0.08 in data set [2] (10 μM); 1.44 ± 0.08 in data set [2] (20 μM); 1.50 ± 0.11 in data set [2] (40 μM); 1.36 ± 0.02 in data set [2] (80 μM). The “MDA levels, percent of control” value with brain homogenates (1 μM) worked out at 98%; in the data set on brain homogenates (5 μM), 38%; in the data set on brain homogenates (10 μM), 16%; with brain homogenates (25 μM), 7%. In addition, the “protection against glucose and glucose oxidase (in words)” value (“protection” for short) in data set [3] is on record as “about equally as effective as C7”. For the same compound, the Peroxidase rate in data set [4] was 0.8 ± 0.2 μM ABTS oxidized/min. In data set [4], this compound had a Peroxidase of 4. Besides, the Catalase rate in data set [5] (setting [7]) was 53.9 ± 8.7 μM O2/min; in data set [5] (relative to C7 (C7 = 100)), 38. This compound also showed an Endpoint in data set [5] (setting [7]) of 12.6 ± 1.3 maximal μM O2. Moreover, in data set [5] (relative to C7 (C7 = 100)), the Catalase endpt. is 44.

Compound `COc1ccc2c(c1)[O][Mn]([Cl])[O]c1cc(OC)ccc1C=NCCN=C2` [Compound C34] came in with an SOD in data set [1] of 70. Further, the “Cell viability, absorbance” value in data set [2] (2.5 μM) is recorded as 0.27 ± 0.01; in data set [2] (5 μM), 0.27 ± 0.01; in data set [2] (10 μM) it was 1.20 ± 0.12; in data set [2] (20 μM), 1.46 ± 0.08; in data set [2] (40 μM) it was 1.48 ± 0.08; in data set [2] (80 μM), 1.54 ± 0.08. In addition, the “MDA levels, percent of control” value in the data set on brain homogenates (1 μM) is listed as 97%; with brain homogenates (5 μM), 30%; in the data set with brain homogenates (10 μM), 12%; with brain homogenates (25 μM), 6%. The “protection” value in data set [3] is on record as “about equally as effective as C7”. The Peroxidase rate in data set [4] came to 0.8 ± 0.2 μM ABTS oxidized/min. Besides, the Peroxidase in data set [4] is 4. In addition, the Catalase rate in data set [5] (setting [7]) amounted to 66.4 ± 13.9 μM O2/min; in data set [5] (relative to C7 (C7 = 100)) it was 46. The compound further came in with an Endpoint in data set [5] (setting [7]) of 11.9 ± 0.2 maximal μM O2. The compound also came in with a Catalase endpt. in data set [5] (relative to C7 (C7 = 100)) of 44.

For the compound `CC(=O)[O][Mn]1[O]c2c(F)cccc2C=NCCN=Cc2cccc(F)c2[O]1` [Compound C36], the SOD in data set [1] turned out to be 104. Further, the “Cell viability, absorbance” value is 0.28 ± 0.01 in data set [2] (2.5 μM); 0.29 ± 0.01 in data set [2] (5 μM); 1.13 ± 0.05 in data set [2] (10 μM); 1.44 ± 0.04 in data set [2] (20 μM); 1.28 ± 0.45 in data set [2] (40 μM); 0.79 ± 0.34 in data set [2] (80 μM). Also, the “synergistic toxicity with t-BHP” value in data set [2] (80 μM) is on record as “possible synergistic toxicity”. The “MDA levels, percent of control” value in the data set on brain homogenates (1 μM) was determined as 95%; in the data set with brain homogenates (5 μM) it was 37%; in the data set with brain homogenates (10 μM), 16%; in the data set with brain homogenates (25 μM), 4%. For the same compound, the “peroxidase rate with t-BHP relative to C32” value in data set [6] is “about twice as fast as C32”. The “protection” value in data set [3] is recorded as “about equally as effective as C7”. In data set [4], this compound came in with a Peroxidase rate of 22.2 ± 0.8 μM ABTS oxidized/min. The compound also showed a Peroxidase in data set [4] of 129. The values for the Catalase rate in data set [5] (setting [7]) and in data set [5] (relative to C7 (C7 = 100)) were 167.5 ± 9.8 μM O2/min and 128, respectively. Besides, the Endpoint in data set [5] (setting [7]) is on record as 27.9 ± 2.3 maximal μM O2. Besides, the Catalase endpt. in data set [5] (relative to C7 (C7 = 100)) is listed as 104.

For `Fc1cccc2c1[O][Mn]([Cl])[O]c1c(F)cccc1C=NCCN=C2` [Compound C37], the SOD in data set [1] came to 115. Further, the “Cell viability, absorbance” value was found to be 0.28 ± 0.01 in data set [2] (2.5 μM); 0.28 ± 0.01 in data set [2] (5 μM); 1.20 ± 0.06 in data set [2] (10 μM); 1.42 ± 0.05 in data set [2] (20 μM); 1.53 ± 0.02 in data set [2] (40 μM); 1.20 ± 0.02 in data set [2] (80 μM). The “synergistic toxicity with t-BHP” value in data set [2] (80 μM) is recorded as “possible synergistic toxicity”. Moreover, the “MDA levels, percent of control” value in the data set on brain homogenates (1 μM) amounted to 94%; with brain homogenates (5 μM), 43%; in the data set on brain homogenates (10 μM), 25%; in the data set with brain homogenates (25 μM), 8%. Further, the “peroxidase rate with t-BHP relative to C32” value in data set [6] is given as “about twice as fast as C32”. Also, the “protection” value in data set [3] is reported as “about equally as effective as C7”. Also, in data set [4], the Peroxidase rate was determined as 23.3 ± 0.6 μM ABTS oxidized/min. The Peroxidase in data set [4] is 92. For the same compound, the Catalase rate in data set [5] (setting [7]) came out at 182.6 ± 26.8 μM O2/min; in data set [5] (relative to C7 (C7 = 100)), 117. The compound further registered an Endpoint in data set [5] (setting [7]) of 28.3 ± 0.5 maximal μM O2. Moreover, the Catalase endpt. in data set [5] (relative to C7 (C7 = 100)) worked out at 104.

Regarding horseradish peroxidase, in data set [6] (1 mM t-BHP), the “ABTS oxidation rate with t-BHP, percent of rate with H2O2” value is reported as “about 5.4%”. For the same compound, in data set [4] (13.2 units/ml, pH 8.1, 1 mM H2O2), the “rate of ABTS oxidation” value worked out at 99.3 µM/min.
